Test results published in the supplement of paper PMC10307832.

Compound: Cc1cnc(Nc2ccc(OCCN3CCCC3)cc2)nc1Nc1cccc(S(=O)(=O)NC(C)(C)C)c1 [Fedratinib] + COc1cc2c(Oc3ccc(NC(=O)C4(C(=O)Nc5ccc(F)cc5)CC4)cc3F)ccnc2cc1OCCCN1CCOCC1 [Foretinib] (partner 0.25 µM)
Experiment: relative viability (nuclei count vs DMSO), 5 days (fraction); higher = more cells survive
Conditions: first compound 1 µM
Outline: (§1)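 Relative viability is defined as nuclei in treated wells over nuclei in vehicle wells. Duplicate plates were run and medians reported. Lung cancer cell lines in 1536-well plates were dosed by pin tool one day after seeding, with one drug or with a fixed anchor-drug dose plus five library-drug doses (not always all listed) in √10 steps, and nuclei were counted after 5 days.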

Cell Line	relative viability
NCI-H2347	0.829
SK-LU-1	0.504
NCI-H1395	0.959
201T	0.895
NCI-H1915	1.05
HCC-827	0.96
LXF-289	0.981
NCI-H23	0.822
NCI-H647	1.16
NCI-H1651	0.761
EPLC-272H	0.472
NCI-H1355	0.913
NCI-H3122	0.941
NCI-H1437	1.33
NCI-H1755	0.874

Compound: Cc1cnc(Nc2ccc(OCCN3CCCC3)cc2)nc1Nc1cccc(S(=O)(=O)NC(C)(C)C)c1 [Fedratinib] + Cc1nc(NC(=O)N2CCC[C@H]2C(N)=O)sc1-c1ccnc(C(C)(C)C(F)(F)F)c1 [Alpelisib] (partner 2 µM)
Experiment: as above
Conditions: first compound 0.1 µM
Outline: as §1

Cell Line	relative viability
COR-L 105	1.04
LOU-NH91	0.615
NCI-H2170	0.835
NCI-H2405	0.626
HOP-62	0.941
LU99A	0.55
BEN	0.83
HARA	0.84
HCC-78	0.324
NCI-H322M	0.814
LCLC-97TM1	0.201
NCI-H2009	1.21
A-427	1.07
NCI-H441	0.607
NCI-H1734	0.627
NCI-H460	0.536
NCI-H2347	1.04
NCI-H1395	0.885
201T	1.04
NCI-H1915	1.03
HCC-827	1.04
LXF-289	1.06
NCI-H23	0.585
NCI-H647	1.13
NCI-H1651	1.16
EPLC-272H	1.05
NCI-H1355	0.731
NCI-H3122	0.833
NCI-H1437	0.826
NCI-H1755	0.969

Same assay, conditions: first compound 0.3162 µM

Cell Line	relative viability
COR-L 105	1.06
LOU-NH91	0.785
NCI-H2170	0.809
NCI-H2405	0.824
HOP-62	0.759
LU99A	0.518
BEN	0.972
HARA	0.793
NCI-H322M	0.75
LCLC-97TM1	0.288
NCI-H2009	1.2
A-427	0.949
NCI-H441	0.655
NCI-H1734	0.654
NCI-H460	0.581
NCI-H2347	1.04
SK-LU-1	0.93
NCI-H1395	1
201T	0.974
NCI-H1915	1.04
HCC-827	0.95
LXF-289	0.997
NCI-H23	0.743
NCI-H647	1.09
NCI-H1651	1.01
EPLC-272H	0.915
NCI-H1355	0.853
NCI-H3122	0.682
NCI-H1437	0.975
NCI-H1755	0.886

Same assay, conditions: first compound 1 µM

Cell Line	relative viability
COR-L 105	0.793
LOU-NH91	0.676
NCI-H2170	0.654
NCI-H2405	0.698
HOP-62	0.89
LU99A	0.387
BEN	0.891
HARA	0.743
HCC-78	0.34
NCI-H322M	0.771
LCLC-97TM1	0.189
NCI-H2009	1.1
A-427	0.959
NCI-H441	0.557
NCI-H1734	0.62
NCI-H460	0.259

Cell Line	relative viability
NCI-H2347	1
SK-LU-1	0.701
NCI-H1395	1.39
201T	0.99
NCI-H1915	0.943
HCC-827	1.02
LXF-289	1.05
NCI-H23	0.598
NCI-H647	0.809
NCI-H1651	0.9
EPLC-272H	0.914
NCI-H1355	0.832
NCI-H3122	0.7
NCI-H1437	0.859
NCI-H1755	0.82

Compound: Cc1cnc(Nc2ccc(OCCN3CCCC3)cc2)nc1Nc1cccc(S(=O)(=O)NC(C)(C)C)c1 [Fedratinib] + Nc1nc2[nH]cc(CCc3ccc(C(=O)N[C@@H](CCC(=O)O)C(=O)O)cc3)c2c(=O)[nH]1 [Pemetrexed] (partner 0.2 µM)
Experiment: as above
Conditions: first compound 0.1 µM
Outline: as §1

Cell Line	relative viability
COR-L 105	0.96
LOU-NH91	0.43
NCI-H2170	0.284
NCI-H2405	1.07
HOP-62	0.26
LU99A	0.181
BEN	0.653
HARA	0.253
HCC-78	0.963
NCI-H322M	0.61
LCLC-97TM1	0.204
NCI-H2009	0.985
A-427	0.97
NCI-H441	0.267
NCI-H1734	0.442
NCI-H460	0.0603

Cell Line	relative viability
NCI-H2347	0.335
SK-LU-1	1
NCI-H1395	0.728
201T	0.332
NCI-H1915	0.599
HCC-827	0.233
LXF-289	0.89
NCI-H23	0.681
NCI-H647	0.172
NCI-H1651	0.457
EPLC-272H	0.389
NCI-H1355	1.08
NCI-H3122	0.186
NCI-H1437	0.244
NCI-H1755	0.506

Same assay, conditions: first compound 0.3162 µM

Cell Line	relative viability
COR-L 105	1.1
LOU-NH91	0.351
NCI-H2170	0.27
NCI-H2405	1.12
HOP-62	0.244
LU99A	0.174
BEN	0.755
HARA	0.259
HCC-78	0.838
NCI-H322M	0.651
LCLC-97TM1	0.151
NCI-H2009	0.97
A-427	0.848
NCI-H441	0.242
NCI-H1734	0.435
NCI-H460	0.0665

Cell Line	relative viability
NCI-H2347	0.419
SK-LU-1	0.906
NCI-H1395	0.952
201T	0.336
NCI-H1915	0.464
HCC-827	0.271
LXF-289	0.872
NCI-H23	0.59
NCI-H647	0.146
NCI-H1651	0.543
EPLC-272H	0.272
NCI-H1355	1.05
NCI-H3122	0.189
NCI-H1437	0.309
NCI-H1755	0.416

Same assay, conditions: first compound 1 µM

Cell Line	relative viability
COR-L 105	0.827
LOU-NH91	0.399
NCI-H2170	0.253
NCI-H2405	0.863
HOP-62	0.322
LU99A	0.197
BEN	0.669
HARA	0.185
HCC-78	0.881
NCI-H322M	0.538
LCLC-97TM1	0.169
NCI-H2009	1.01
A-427	0.939
NCI-H441	0.232
NCI-H1734	0.356
NCI-H460	0.0598

Cell Line	relative viability
NCI-H2347	0.433
SK-LU-1	0.837
NCI-H1395	0.665
201T	0.314
NCI-H1915	0.425
HCC-827	0.256
LXF-289	0.884
NCI-H23	0.497
NCI-H647	0.134
NCI-H1651	0.57
EPLC-272H	0.343
NCI-H1355	1.06
NCI-H3122	0.197
NCI-H1437	0.313
NCI-H1755	0.449

Compound: Cc1cnc(Nc2ccc(OCCN3CCCC3)cc2)nc1Nc1cccc(S(=O)(=O)NC(C)(C)C)c1 [Fedratinib] + Nc1ncn([C@H]2C[C@H](O)[C@@H](CO)O2)c(=O)n1 [Decitabine] (partner 2 µM)
Experiment: as above
Conditions: first compound 0.1 µM
Outline: as §1

Cell Line	relative viability
COR-L 105	0.669
LOU-NH91	0.756
NCI-H2170	0.478
NCI-H2405	0.729
HOP-62	0.224
LU99A	0.936
BEN	0.582
HARA	0.485
HCC-78	0.693
NCI-H322M	0.657
LCLC-97TM1	0.273
NCI-H2009	0.368
A-427	0.596
NCI-H441	0.223
NCI-H1734	0.444
NCI-H460	0.556

Cell Line	relative viability
NCI-H2347	0.637
SK-LU-1	0.614
NCI-H1395	0.628
201T	0.78
NCI-H1915	0.266
HCC-827	0.292
LXF-289	0.36
NCI-H23	0.322
NCI-H647	0.581
NCI-H1651	0.365
EPLC-272H	0.312
NCI-H1355	0.344
NCI-H3122	0.392
NCI-H1437	0.603
NCI-H1755	0.662

Same assay, conditions: first compound 0.3162 µM

Cell Line	relative viability
COR-L 105	0.611
LOU-NH91	0.798
NCI-H2170	0.466
NCI-H2405	0.725
HOP-62	0.172
LU99A	0.968
BEN	0.693
HARA	0.551
HCC-78	0.73
NCI-H322M	0.749
LCLC-97TM1	0.255
NCI-H2009	0.406
A-427	0.561
NCI-H441	0.218
NCI-H1734	0.399
NCI-H460	0.495

Cell Line	relative viability
NCI-H2347	0.631
SK-LU-1	0.599
NCI-H1395	0.738
201T	0.855
NCI-H1915	0.258
HCC-827	0.336
LXF-289	0.338
NCI-H23	0.338
NCI-H647	0.327
NCI-H1651	0.629
EPLC-272H	0.393
NCI-H1355	0.353
NCI-H3122	0.417
NCI-H1437	0.583
NCI-H1755	0.723

Same assay, conditions: first compound 1 µM

Cell Line	relative viability
COR-L 105	0.511
LOU-NH91	0.785
NCI-H2170	0.443
NCI-H2405	0.663
HOP-62	0.202
LU99A	0.892
BEN	0.608
HARA	0.427
HCC-78	0.705
NCI-H322M	0.64
LCLC-97TM1	0.214
NCI-H2009	0.356
A-427	0.524
NCI-H441	0.233
NCI-H1734	0.529
NCI-H460	0.232

Cell Line	relative viability
NCI-H2347	0.647
SK-LU-1	0.615
NCI-H1395	0.622
201T	0.877
NCI-H1915	0.247
HCC-827	0.318
LXF-289	0.378
NCI-H23	0.324
NCI-H647	0.372
NCI-H1651	0.618
EPLC-272H	0.344
NCI-H1355	0.356
NCI-H3122	0.403
NCI-H1437	0.6
NCI-H1755	0.664
